Measured values reported in ChEMBL document CHEMBL1138510, “Antimalarial peroxide dyads from natural artemisinin and hydroxyalkylated 1,2,4-trioxanes” (2009).

System: Plasmodium falciparum
Experiment: Antiplasmodial activity against Plasmodium falciparum NF54 infected human A+ erythrocytes after 72 hrs as IC ratio relative to dihydroartemisinin
Assay type: functional

SMILES | Ratio IC50
C=C(C)[C@@H]1OOC2(CCCCC2)O[C@@H]1CCOC1C[C@@H]2O[C@]3(C)CC[C@H]4[C@H](C)CC[C@@H]([C@H]1C)[C@@]24OO3 (mixture of isomers) | 0.49
C=C(C)[C@@H]1OOC(C)(C)O[C@@H]1CCO[C@H]1C[C@@H]2O[C@]3(C)CC[C@H]4[C@H](C)CC[C@@H]([C@H]1C)[C@@]24OO3 | 0.54
